Reference: PubChem BioAssay AID2060894 (Molecular Pharmacology Branch, DTP, NCI, 2025)

Test system: K12877-001-R-J1-PDC complex spheroid viability
Experiment: Anticancer human tumor K12877-001-R-J1-PDC patient-derived lung adenocarcinoma cell line growth inhibition [RAS]
Details: for viability, T/C: stronger effect = lower value; active = viability on the fitted dose curve at most 10% of control; inactive = the rest
How it was run: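 Agents were tested in combination matrices in half-log decrements from a top concentration at or near clinical Cmax (10 microM if undetermined). Targets were multi-cell spheroids of tumour lines plus HUVEC and MSC stromal cells.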

[1] = curve of first compound, second compound 0.00316 µM
[2] = curve of first compound, second compound 0.01 µM
[3] = curve of first compound, second compound 0.0316 µM
[4] = curve of first compound, second compound 0.1 µM
[5] = curve of first compound, second compound 0.316 µM
[6] = curve of first compound, second compound 1 µM
[7] = second compound 0.00316 µM, first compound 0.0316 µM
[8] = second compound 0.00316 µM, first compound 0.1 µM
[9] = second compound 0.00316 µM, first compound 0.316 µM
[10] = second compound 0.00316 µM, first compound 1 µM
[11] = second compound 0.01 µM, first compound 0.0316 µM
[12] = second compound 0.01 µM, first compound 0.1 µM
[13] = second compound 0.01 µM, first compound 0.316 µM
[14] = second compound 0.01 µM, first compound 1 µM
[15] = second compound 0.0316 µM, first compound 0.0316 µM
[16] = second compound 0.0316 µM, first compound 0.1 µM
[17] = second compound 0.0316 µM, first compound 0.316 µM
[18] = second compound 0.0316 µM, first compound 1 µM
[19] = second compound 0.1 µM, first compound 0.0316 µM
[20] = second compound 0.1 µM, first compound 0.1 µM
[21] = second compound 0.1 µM, first compound 0.316 µM
[22] = second compound 0.1 µM, first compound 1 µM
[23] = second compound 0.316 µM, first compound 0.0316 µM
[24] = second compound 0.316 µM, first compound 0.1 µM
[25] = second compound 0.316 µM, first compound 0.316 µM
[26] = second compound 0.316 µM, first compound 1 µM
[27] = second compound 1 µM, first compound 0.0316 µM
[28] = second compound 1 µM, first compound 0.1 µM
[29] = second compound 1 µM, first compound 0.316 µM
[30] = second compound 1 µM, first compound 1 µM
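Note: spheroids exposed to agents for one week before readout.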
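Throughout, for viability, T/C: tumour cells co-cultured with HUVEC and mesenchymal stem cells in spheroids.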

CCN1CCN(Cc2ccc(Nc3ncc(F)c(-c4cc(F)c5nc(C)n(C(C)C)c5c4)n3)nc2)CC1 + C=CC(=O)N1CCN(c2nc(OCC3CCCN3C)nc3c(F)c(-c4nc(N)cc(C)c4C(F)(F)F)c(Cl)cc23)C(C)C1
614 nM: IC50 [4]
inactive: viability, T/C (second compound 0.00316 µM, first compound 0.00316 µM) 95.9% | viability, T/C (second compound 0.00316 µM, first compound 0.01 µM) 103% | viability, T/C [7] 97.2% | viability, T/C [8] 91.3% | viability, T/C [9] 83.5% | viability, T/C [10] 47.8% | viability, T/C (second compound 0.01 µM, first compound 0.00316 µM) 88.3% | viability, T/C (second compound 0.01 µM, first compound 0.01 µM) 89.8% | viability, T/C [11] 85.2% | viability, T/C [12] 95.4% | viability, T/C [13] 65.2% | viability, T/C [14] 33.2% | viability, T/C (second compound 0.0316 µM, first compound 0.00316 µM) 96.4% | viability, T/C (second compound 0.0316 µM, first compound 0.01 µM) 90.4% | viability, T/C [15] 76.5% | viability, T/C [16] 76.7% | viability, T/C [17] 75.8% | viability, T/C [18] 39.2% | viability, T/C (second compound 0.1 µM, first compound 0.00316 µM) 92.2% | viability, T/C (second compound 0.1 µM, first compound 0.01 µM) 84.5% | viability, T/C [19] 83.3% | viability, T/C [20] 72.4% | viability, T/C [21] 65.8% | viability, T/C [22] 39.6% | viability, T/C (second compound 0.316 µM, first compound 0.00316 µM) 95.2% | viability, T/C (second compound 0.316 µM, first compound 0.01 µM) 86.5% | viability, T/C [23] 79.9% | viability, T/C [24] 77.9% | viability, T/C [25] 78.6% | viability, T/C [26] 30.1% | viability, T/C (second compound 1 µM, first compound 0.00316 µM) 85% | viability, T/C (second compound 1 µM, first compound 0.01 µM) 77.2% | viability, T/C [27] 88.1% | viability, T/C [28] 81.1% | viability, T/C [29] 74.1% | viability, T/C [30] 38.9%
545 nM: IC50 [2]
696 nM: IC50 [6]
597 nM: IC50 [5]
691 nM: IC50 [3]
945 nM: IC50 [1]

C[C@@H](NC(=O)c1ncnc(N)c1Cl)c1ncc(C(=O)Nc2cc(C(F)(F)F)c(Cl)cn2)s1 + C=CC(=O)N1CCN(c2nc(OCC3CCCN3C)nc3c(F)c(-c4nc(N)cc(C)c4C(F)(F)F)c(Cl)cc23)C(C)C1
> 10000 nM: IC50 [1] | IC50 [2] | IC50 [3] | IC50 [4] | IC50 [5] | IC50 [6]
inactive: viability, T/C [7] 94.8% | viability, T/C [8] 89.7% | viability, T/C [9] 95.6% | viability, T/C [10] 99.1% | viability, T/C (second compound 0.00316 µM, first compound 3.16 µM) 101% | viability, T/C (second compound 0.00316 µM, first compound 10 µM) 99.8% | viability, T/C [11] 96.8% | viability, T/C [12] 82.5% | viability, T/C [13] 92.6% | viability, T/C [14] 92.9% | viability, T/C (second compound 0.01 µM, first compound 3.16 µM) 97.1% | viability, T/C (second compound 0.01 µM, first compound 10 µM) 85.4% | viability, T/C [15] 91% | viability, T/C [16] 86.9% | viability, T/C [17] 74.3% | viability, T/C [18] 90.1% | viability, T/C (second compound 0.0316 µM, first compound 3.16 µM) 86.8% | viability, T/C (second compound 0.0316 µM, first compound 10 µM) 96.5% | viability, T/C [19] 89.6% | viability, T/C [20] 83.5% | viability, T/C [21] 84.7% | viability, T/C [22] 90.4% | viability, T/C (second compound 0.1 µM, first compound 3.16 µM) 83.7% | viability, T/C (second compound 0.1 µM, first compound 10 µM) 85.2% | viability, T/C [23] 81.4% | viability, T/C [24] 81.8% | viability, T/C [25] 77.1% | viability, T/C [26] 83.6% | viability, T/C (second compound 0.316 µM, first compound 3.16 µM) 83.1% | viability, T/C (second compound 0.316 µM, first compound 10 µM) 116% | viability, T/C [27] 75% | viability, T/C [28] 75.8% | viability, T/C [29] 89.5% | viability, T/C [30] 92.5% | viability, T/C (second compound 1 µM, first compound 3.16 µM) 91.1% | viability, T/C (second compound 1 µM, first compound 10 µM) 113%

C=CC(=O)Nc1cc(Nc2nccc(-c3cn(C)c4ccccc34)n2)c(OC)cc1N(C)CCN(C)C
> 1000 nM: IC50 (curve of compound)
inactive: viability, T/C (compound 0.00316 µM) 108% [middle of 4 runs] | viability, T/C (compound 0.01 µM) 106% [middle of 4 runs] | viability, T/C (compound 0.0316 µM) 106% [middle of 4 runs] | viability, T/C (compound 0.1 µM) 101% [middle of 4 runs] | viability, T/C (compound 0.316 µM) 103% [middle of 4 runs] | viability, T/C (compound 1 µM) 90.8% [middle of 4 runs]

CCn1c(-c2cc(N3CCN(C)CC3)cnc2C(C)OC)c2c3cc(ccc31)-c1csc(n1)CC(NC(=O)C1CC1C)C(=O)N1CCCC(N1)C(=O)OCC(C)(C)C2 (configuration not stated)
> 300 nM: IC50 (compound alone, run of 08/26/2024)
inactive: viability, T/C (compound 0.000949 µM) 81.8% [middle of 8 runs] | viability, T/C (compound 0.003 µM) 72.1% [middle of 8 runs] | viability, T/C (compound 0.00949 µM) 67.8% [middle of 8 runs] | viability, T/C (compound 0.0949 µM) 107% [middle of 8 runs] | viability, T/C (compound 0.3 µM) 97.1% [middle of 7 runs]
